Laboratory results reported in BindingDB's records for doi:10.1021/jm900194w (The Hong Kong Polytechnic University, 2009).

Assay: Reversal of MRP1-mediated doxorubicin-resistance in human HeLa-T5 cells assessed as reduction of doxorubicin IC50 percent by half

Q: With `Cc1onc2c1c(=O)n([C@H]1CCC[C@@H](CNC(=O)c3ccccc3)C1)c1cccc(Cl)c21` (racemic) [N-(((1R,3S)-3-(9-chloro-3-methyl-4-oxoisoxazolo[4,3-c]quinolin-5(4H)-yl)cyclohexyl)methyl)benzamide] as the compound, how does the EC50 read?
A: Its EC50 is 93 nM.
